From PMC5075098, “Preclinical Evaluation of the Stability, Safety, and Efficacy of CD101, a Novel Echinocandin” (Antimicrobial Agents and Chemotherapy, 2016)
Read-outs that look alike come from different tables or passages of the source. Starred links: 1 amine or outer side, 2 acyl side, 3 side chain; linkers in the order of their positions; H or OH if unused. Positions of bridges follow the written chain, without caps; N, C: chain ends. Non-standard residues stand in square brackets, D forms with d. Residues, ends and D or L forms follow the SMILES beside them. *: point of attachment. Orn(4R-OH,5R-OCH2CH2NMe3+) = C[N+](C)(C)CCO[C@@H](N[*:3])[C@H](O)C[C@H](N[*:1])C(=O)[*:2]; pTerphenylCO(4''-OnC5H11) = CCCCCOc1ccc(-c2ccc(-c3ccc(C(=O)*)cc3)cc2)cc1; hTyr(3S-OH,4S-OH) = N[C@H](C(=O)O)[C@H](O)[C@@H](O)c1ccc(O)cc1; Pro(3S-OH,4S-Me) = C[C@H]1CN[C@H](C(=O)O)[C@H]1O; Hyp = O=C(O)[C@@H]1C[C@@H](O)CN1

Key:
[1] = Plasma protein binding, ultracentrifugation; type: in vitro ADME; settings: human, ∼500,000 × g 2.5 h at 37°C, LC-MS/MS, SEM, read-out: % of protein bound (SEM) (converted)
Description: Ultracentrifugation ([15]) was used to compare human plasma protein binding of CD101 and anidulafungin. […] Following ultracentrifugation, the supernatant was transferred to a microtiter plate containing 50 μl plasma for matrix-matching purposes and quenched with 400 μl of cold acetonitrile (ACN) with 0.1% formic acid containing diclofenac as an internal standard. Quenched samples were centrifuged for 5 min at 10°C (e.g., 3,100 rpm [2,000 × g]) to sediment the precipitated proteins, and 50 μl supernatant was transferred to a microtiter plate containing 100 μl of water prior to analysis by LC-MS/MS. The percentage bound was the difference between 100% and the percentage free (the ratio of the concentration in supernatant to the total concentration).

[2] = Plasma protein binding, rapid equilibrium dialysis; type: in vitro ADME, CD-1 mouse; settings: mouse, pH 7.4, read-out: protein bound (converted)
Description: (§1) Rapid equilibrium dialysis (RED) ([16]) was used to determine cross-species protein binding of CD101 in CD-1 mouse, Sprague-Dawley rat, cynomolgus monkey, chimpanzee, and human plasma. […] Dialysis buffer (350 μl of phosphate-buffered saline [PBS], pH 7.4, with 100 mM sodium phosphate) was loaded into the buffer (left) channel of the RED device. The device was agitated gently at 37°C for 4 h. Samples were placed into a new 96-well plate for matrix matching (25 μl of plasma added to the dialysis buffer aliquots or 25 μl of dialysis buffer to the plasma aliquots). […] Following centrifugation, 200 μl of the supernatant was transferred to a clean 96-well plate and evaporated to dryness at 37°C under nitrogen. Samples were reconstituted in 100 μl of 1:1 acetonitrile-water prior to analysis by LC-MS/MS. The percentage bound was calculated as the difference between 100% and the percentage free (the ratio of the concentration in supernatant to the concentration in plasma).

[3] = Plasma protein binding, rapid equilibrium dialysis; type: in vitro ADME, Sprague-Dawley rat; settings: rat, pH 7.4, read-out: protein bound (converted)
Description: as §1

[4] = Plasma protein binding, rapid equilibrium dialysis; type: in vitro ADME, cynomolgus monkey; settings: monkey, pH 7.4, read-out: protein bound (converted)
Description: as §1

[5] = Plasma protein binding, rapid equilibrium dialysis; type: in vitro ADME, chimpanzee; settings: pH 7.4, read-out: protein bound (converted)
Description: as §1

[6] = Plasma protein binding, rapid equilibrium dialysis; type: in vitro ADME; settings: human, pH 7.4, read-out: protein bound (converted)
Description: as §1

[7] = Inhibition of recombinant CYP450 enzymes; type: in vitro ADME; settings: recombinant CYP450 enzymes 1A2, 2B6, 2C8, 2C9, 2C19, 2D6, 3A4
[8] = 2-week repeat-dose toxicity and hepatotoxicity screening; type: in vivo, Sprague-Dawley rats
Description: Dosing solutions were prepared in a vehicle comprising 5% mannitol containing 2.5% polysorbate 80 (Tween 80) in 0.3% acetic acid.
Animals were randomly assigned to dose groups and stratified by weight to achieve similar group mean body weights (males, 255 to 318 g; females, 192 to 215 g). Blood, urine, and liver samples (excised and preserved in 10% neutral buffered formalin) were obtained on day 15. Plasma liver enzyme levels were assessed. Liver tissues were processed to paraffin blocks and prepared for slides. Slides were stained with hematoxylin and eosin. Hematology data were collected using the Advia 120 hematology analyzer. Coagulation data were collected using the Diagnostica STA compact coagulation analyzer. Clinical chemistry data were collected using the AU400 chemistry analyzer. Qualitative and quantitative urinalysis was recorded using iRICELL 1500 UA analyzer. Clinical effects were assessed for determination of the maximum tolerated dose (MTD).
Statistical evaluations were performed on in-life and clinical pathology numerical data to determine statistical significance following a decision tree. First, the homogeneity of the data was determined by Bartlett's test. If the data were homogeneous, a one-way analysis of variance was performed to assess statistical significance. If statistically significant differences between the means were found, Dunnett's test was used to determine the degree of significance from the control means (P < 0.05, P < 0.01, and P < 0.001). If the data were nonhomogeneous, the Kruskal-Wallis nonparametric analysis was performed to assess statistical significance. If statistically significant differences between the means were found (P < 0.05, P < 0.01, and P < 0.001), the Mann-Whitney U test was used to determine the degree of significance from the control means (P < 0.05, P < 0.01, and P < 0.001).

[9] = system: C. albicans R303; settings: CLSI broth microdilution, read after 24 h at 35°C, prominent growth inhibition (∼50%)
Description: (§2) Enumeration of MIC and MEC assay inoculum viable counts was performed by plating aliquots of the starting assay inoculum on Sabouraud dextrose agar.

[10] = after 44 h; cited from earlier work
Description: CD101, a novel echinocandin being developed as a high-exposure, once-weekly intravenous (i.v.) formulation for the treatment and prevention of systemic fungal infections, was designed to be chemically and metabolically stable to avoid hepatotoxicity while retaining the antifungal activity of an echinocandin.

[11] = 4-week repeat-dose, ref Ong et al., submitted, cited from earlier work
Description: The studies described herein are part of a comprehensive series of safety, pharmacology, and toxicology studies of up to 4 weeks' duration as well as genetic toxicology studies, as required for an investigational new drug application. The results provide important insights for further research and development of CD101 and are best considered in this broader, developing context.

[12] = system: A. fumigatus (ATCC 13073); test: MEC/MIC, CLSI broth microdilution; settings: 24 h at 35°C, rounded/compact hyphal morphology
Description: as §2

[13] = CYP450 inhibition in human liver microsomes; settings: pH 7.4, IC50, human liver microsomes, 0.03 to 30 μM, 5 min at 37°C, pH 7.4, LC-MS/MS, duplicate
Description: The final DMSO content in the reaction mixture was equal in all solutions used within an assay and was less than 0.2%. […] After incubation for 5 min at 37°C, the reactions were terminated by addition of methanol-containing internal standard (propranolol) for analytical quantification. The quenched samples were incubated at 4°C for 10 min and centrifuged at 4°C for 10 min.

[14] = system: A. fumigatus (ATCC 13073); test: Neutropenic mouse model of A. fumigatus infection, survival; settings: for survival: 10-day observation, n = 10/group
Description: Animals were immunosuppressed by three i.p. injections of cyclophosphamide (the first injection at 6 mg/mouse 3 days before inoculation and the second and third injections at 2 mg/mouse on 1 and 4 days after inoculation). […] Dose administration started 1 and 7 h after infection. […] An increase of 50% or more in the survival rate of the active groups compared to the vehicle group indicated significant antifungal efficacy.

[15] = CD101 2, 6, 20 mg/kg/day i.v. 14 days, rats

SMILES: CCCCCOc1ccc(-c2ccc(-c3ccc(C(=O)N[C@H]4C[C@@H](O)[C@@H](OCC[N+](C)(C)C)NC(=O)[C@@H]5[C@@H](O)[C@@H](C)CN5C(=O)[C@H]([C@@H](C)O)NC(=O)[C@H]([C@H](O)[C@@H](O)c5ccc(O)cc5)NC(=O)[C@@H]5C[C@@H](O)CN5C(=O)[C@H]([C@@H](C)O)NC4=O)cc3)cc2)cc1 [CD101] ({pTerphenylCO(4''-OnC5H11)}-[Orn(4R-OH,5R-OCH2CH2NMe3+)]T[Hyp][hTyr(3S-OH,4S-OH)]T[Pro(3S-OH,4S-Me)]; lactam 1-C)
- fraction unbound ([1]; 1 μg/ml): 0.02
- fraction unbound ([1]; 5 μg/ml): 0.017
- fraction unbound [2]: 0.009
- fraction unbound [3]: 0.022
- fraction unbound [4]: 0.011
- fraction unbound [5]: 0.012
- fraction unbound [6]: 0.013
- IC50 [7]: > 10 µM
- repeat-dose systemic or target organ toxicity ([8]; 14-day i.v. infusion, rats, CD101 20 mg/kg/day, anidulafungin 40 mg/kg/day (comparable exposure)): did not appear to elicit any evidence of repeat-dose systemic or target organ toxicity
- early deaths [8, 15]: no early deaths
- effects on body weight, hematology, coagulation, or urinalysis [8, 15]: did not exhibit effects on body weight, hematology, coagulation, or urinalysis
- increases in neutrophils ([8]; CD101 2, 6, 20 mg/kg/day i.v. 14 days, rats, P ≤ 0.01, within normal limits, considered incidental): up to 31%
- increases in reticulocytes, hemoglobin, hematocrit, activated partial thromboplastin time, BUN, sodium, total bilirubin, total protein, chloride, and globulin ([8]; CD101 2, 6, 20 mg/kg/day i.v. 14 days, rats, P ≤ 0.05, within normal limits, considered incidental): less than 20%
- microscopic changes in the liver ([8]; day 15, H&E, CD101 2, 6, or 20 mg/kg/day, anidulafungin 40 mg/kg/day (some of the females)): no microscopic changes
- MIC [9]: 0.12 µg/mL
- % remaining in human plasma [10]: 93%
- no observed adverse effect level relative to the efficacious plasma exposure level ([11]; cynomolgus monkeys): 47 times
- no observed adverse effect level relative to the efficacious plasma exposure level ([11]; rats): 34 times
- MEC [12]: 0.004 µg/mL
- IC50 ([13]; midazolam substrate (2.5 μM)): 29 µM
- IC50 ([13]; testosterone substrate (50 μM)): > 30 µM
- survival ([14]; 0.2 mg/kg i.v. BID for 5 days): 80%
- survival ([14]; 1 mg/kg i.v. BID for 5 days): 90%
- survival ([14]; 5 mg/kg i.v. BID for 5 days): 100%
- 10-day survival rate compared to the vehicle group ([14]; BID for 5 days, CD101 all dose groups and anidulafungin 1 and 5 mg/kg i.v. (P < 0.05), amphotericin B 0.3 mg/kg i.p.): significant increase
